US7112579B2, “26,27-Homologated-20-EPI-2-alkyl-19-nor-vitamin D compounds” (Wisconsin Alumni Research Foundation, priority 1997, dated 2006)
Values joined by “and” are separate entries in the source; they are usually repeats but may differ in a detail not shown here. Equal entries are not always repeated. Marks after values point to notes of the source that are not given here.

Columns and labels:
[1] = system: intestinal calcium transport; assay: Support of intestinal calcium transport in vitamin D-deficient rats on a low-calcium diet (3 weeks), 7 daily i.p. doses; format: in vivo, rat
[2] = system: intestinal calcium transport; assay: Intestinal calcium transport (everted sac), chronic doses 7 days i.p., vitamin D-deficient rats; format: in vivo, rat; details: for intestinal calcium transport activity, in words: chronic 7 days, 130 and/or 260 pmol/day
Method: (§1) Male weanling rats were obtained from Sprague Dawley Co. (Indianapolis, Ind.) and fed a 0.47% calcium, 0.3% phosphorus vitamin D-deficient diet for 1 week and then given the same diet containing 0.02% calcium, 0.3% phosphorus for 2 weeks. During the last week they were given the indicated dose of compound by intraperitoneal injection in 0.1 ml 95% propylene glycol and 5% ethanol each day for 7 days. The control animals received only the 0.1 ml of 95% propylene glycol, 5% ethanol. Twenty-four hours after the last dose, the rats were sacrificed and intestinal calcium transport was determined by everted sac technique as previously described and serum calcium determined by atomic absorption spectrometry on a model 3110 Perkin Elmer instrument (Norwalk, Conn.). There were 5 rats per group and the values represent mean±SEM.
as §1, with “With respect to the data in Tables 3 and 4, male” for “Male”, “atormic” for “atomic”

[3] = system: serum calcium (bone calcium mobilization); assay: Serum calcium (bone calcium mobilization) after a single intrajugular dose, vitamin D-deficient rats; format: in vivo, rat; details: Table 2, single intrajugular dose 650 pmol, 24 h, mean±SEM
Method: (§2) Male Holtzman strain weanling rats were obtained from the Sprague Dawley Co. (Indianapolis, Ind.) and fed the 0.47% calcium, 0.3% phosphorus diet described by Suda et al. (J. Nutr. 100, 1049–1052, 1970) for 1 week and then fed the same diet containing 0.02% calcium and 0.3% phosphorus for 2 additional weeks. At this point, they received a single intrajugular injection of the indicated dose dissolved in 0.1 ml of 95% propylene glycol/5% ethanol. Twenty-four hours later they were sacrificed and intestinal calcium transport and serum calcium were determined as described in Table 1. The dose of the compounds was 650 pmol and there were 5 animals per group. The data are expressed as mean±SEM.

[4] = system: serum calcium (bone calcium mobilization); assay: Serum calcium (bone calcium mobilization), chronic doses 7 days i.p., vitamin D-deficient rats; format: in vivo, rat; details: for bone calcium mobilization (serum calcium) activity, in words: chronic 7 days, 130 and/or 260 pmol/day
Method: as §1
as §1, with “With respect to the data in Tables 3 and 4, male” for “Male”, “atormic” for “atomic”

[5] = system: intestinal calcium transport; assay: Intestinal calcium transport after a single intrajugular dose, vitamin D-deficient rats; format: in vivo, rat; details: Table 2, single intrajugular dose 650 pmol, 24 h, mean±SEM
Method: as §2

[6] = system: bone calcium mobilization (serum Ca); assay: Bone calcium mobilization (serum Ca) in vitamin D-deficient rats on a low-calcium diet (3 weeks), 7 daily i.p. doses; format: in vivo, rat
[7] = system: human promyelocyte HL-60 cells; assay: Differentiation of HL-60 promyelocytes into monocytes (NBT reduction); format: cell-based; details: for HL-60 Differentiation ED50: concentration inducing 50% maturation (NBT); for induction of differentiation of HL-60 cells to monocytes, in words: FIGS. 2, 4, 6, comparison in words
Source text: In the next assay, the cellular activity of the synthesized compounds was established by studying their ability to induce differentiation of human promyelocyte HL-60 cells into monocytes.

[8] = molecular target: T1, porcine intestinal vitamin D receptor (Sus scrofa, UniProt A3RGC1); assay: Competitive binding to the porcine intestinal vitamin D receptor ([3H]-1,25-(OH)2-D3 displacement); parameters: species or system pig; details: Table 8
T1 construct: from tissue; host or cells: porcine intestine
T1 sequence (A3RGC1 1-427): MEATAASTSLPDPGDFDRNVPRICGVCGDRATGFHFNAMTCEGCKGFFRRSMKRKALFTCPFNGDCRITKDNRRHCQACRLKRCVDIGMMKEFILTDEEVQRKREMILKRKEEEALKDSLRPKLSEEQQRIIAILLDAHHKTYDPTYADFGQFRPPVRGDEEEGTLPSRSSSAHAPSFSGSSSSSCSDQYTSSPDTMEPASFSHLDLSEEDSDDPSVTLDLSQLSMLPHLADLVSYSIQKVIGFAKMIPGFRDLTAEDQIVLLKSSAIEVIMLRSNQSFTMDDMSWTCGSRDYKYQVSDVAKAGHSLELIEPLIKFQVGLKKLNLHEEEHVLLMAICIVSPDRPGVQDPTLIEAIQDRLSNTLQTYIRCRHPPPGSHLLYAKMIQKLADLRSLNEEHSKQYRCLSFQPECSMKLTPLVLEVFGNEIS

[9] = Table 7 panel 1, 260 pmol daily x 7 i.p.
[10] = Table 7 panel 2, 260 pmol daily x 7 i.p.
[11] = Table 9 panel 1, 260 pmol daily x 7 i.p.
[12] = Table 9 panel 2, 260 pmol daily x 7 i.p.
[13] = Table 1, 260 pmol/day/7 days i.p., mean±SEM, 5 rats
[14] = Table 4, 260 pmol/day/7 days i.p., mean±SEM
[15] = Table 5, 260 pmol/day/7 days i.p.
[16] = Table 1, 130 pmol/day/7 days i.p., mean±SEM, 5 rats
[17] = listed as 2-Methyl (α and β mixture)-19-Nor-20S-1,25-(OH)2D3
[18] = Table 9 panel 1, 32 pmol daily x 7 i.p.
[19] = Table 9 panel 1, 65 pmol daily x 7 i.p.
[20] = listed as α and β isomers of 2-methyl-19-nor-1,25-(OH)2D3
[21] = listed as 2-Methyl (α and β mixture)-19-Nor-1,25-(OH)2D3

C=C1/C(=C\C=C2/CCC[C@]3(C)[C@@H]([C@H](C)CCCC(C)(C)O)CC[C@@H]23)C[C@@H](O)C[C@@H]1O [1α,25-(OH)2D3, 1α,25-dihydroxyvitamin D3, reference compound]
Ca Transport S/M (mean ± SEM) [1, 9]: 7.2 ± 0.6^c S/M | Ca Transport S/M (mean ± SEM) [1, 10]: 5.0 ± 0.4^c S/M | Ca Transport S/M (mean ± SEM) [1, 11]: 7.2 ± 0.6^c S/M | Ca Transport S/M (mean ± SEM) [1, 12]: 5.0 ± 0.4^c S/M | Intestinal Calcium Transport (S/M) [2, 13]: 6.2 ± 0.4 S/M | Intestinal Calcium Transport (S/M) ([2]; Table 3, 260 pmol/day/7 days i.p., mean±SEM): 4.6 ± 0.2 S/M | Intestinal Calcium Transport (S/M) [2, 14]: 5.6 ± 1.3 S/M | Intestinal Calcium Transport (S/M) [2, 15]: 6.6 ± 0.5 S/M | Serum Calcium [3]: 5.7 ± 0.2 mg/100 ml | Serum Calcium ([4]; Table 1, 260 pmol/day/7 days i.p., mean±SEM, 5 rats, listed as 1,25-(OH)2D3): 7.2 mg/100 ml and 7.2 ± 0.5 mg/100 ml | Serum Calcium ([4]; Table 3, 260 pmol/day/7 days i.p., mean±SEM, listed as 1,25-(OH)2D3): 6.6±0.4 mg/100 ml | Serum Calcium [4, 14]: 6.1 ± 0.5 mg/100 ml | Serum Calcium [4, 15]: 5.2 ± 0.1 mg/100 ml | Intestinal Calcium Transport (S/M) [5]: 5.8 ± 0.3 S/M | Serum Ca (mean ± SEM) [6, 9]: 5.6 ± 0.2^c | Serum Ca (mean ± SEM) [6, 10]: 6.3 ± 0.2^c | Serum Ca (mean ± SEM) [6, 11]: 5.6 ± 0.2^c | Serum Ca (mean ± SEM) [6, 12]: 6.3 ± 0.2^c | HL-60 Differentiation ED50 ([7]; Table 6): 4 nM | HL-60 Differentiation ED50 ([7]; Table 8): 4 nM

CC(CCCC(C)(C)O)C1CCC2C(=CC=C3CC(O)C(C)C(O)C3)CCCC21C (mixture of isomers) [2-Methyl (α and β) 19-Nor-20S-1,25-(OH)2D3] [mixture of 2α and 2β-methyl-19-nor-20S-1α,25-dihydroxyvitamin D3]
Intestinal Calcium Transport (S/M) [2, 16]: 5.0 ± 0.9 S/M | Intestinal Calcium Transport (S/M) [2, 13]: 6.9 ± 0.5 S/M | intestinal calcium transport activity, in words [2]: no significant change in intestinal calcium transport at 130 pmol dose level | Serum Calcium [3, 17]: 8.1 ± 0.3 mg/100 ml | Serum Calcium [4, 16]: 9.6 ± 0.1 mg/100 ml | Serum Calcium ([4]; Table 1, 130 pmol/day/7 days i.p., mean±SEM, 5 rats, listed as 2-methyl-(α and β)-19-nor-20S-1,25-(OH)2D3): 9.6 mg/100 ml | Serum Calcium [4, 13]: 12.2 ± 0.3 mg/100 ml | Serum Calcium ([4]; Table 1, 260 pmol/day/7 days i.p., mean±SEM, 5 rats, listed as 2-methyl-(α and β)-19-nor-20S-1,25-(OH)2D3): 12.2 mg/100 ml | bone calcium mobilization (serum calcium) activity, in words [4]: much higher than that of the native hormone | Intestinal Calcium Transport (S/M) [5, 17]: 6.7 ± 0.6 S/M | induction of differentiation of HL-60 cells to monocytes, in words ([7]; listed as α and β derivatives of 2-methyl-19-nor-20S-1,25-(OH)2D3): extremely potent

CC1[C@H](O)CC(=C/C=C2\CCC[C@@]3(C)C2CCC3[C@@H](C)CCCC2(O)CCCC2)C[C@H]1O (stereo partly drawn) [Compound 48, 20(S)-1α,25-Dihydroxy-26,27-dimethylene-2α-methyl-19-norvitamin D3]
Ca Transport S/M (mean ± SEM) [1, 18]: 7.9 ± 1.0^d^1 S/M | Ca Transport S/M (mean ± SEM) [1, 19]: 9.0 ± 1.0^d^2 S/M | VDR Binding ratio ([8]; analog average ED50 / ED50 for 1α,25-(OH)2D3): 4.0 | EC50 ([8]; concentration for 50% displacement of radiolabeled 1α,25-(OH)2D3, read-out: VDR Binding ED50): 3.5 nM | Serum Ca (mean ± SEM) [6, 18]: 6.9 ± 0.5^d^1 | Serum Ca (mean ± SEM) [6, 19]: 9.0 ± 0.3^d^2 | HL-60 Differentiation Activity ratio ([7]; Table 8, analog average ED50 / ED50 for 1α,25-(OH)2D3): 0.01 | HL-60 Differentiation ED50 ([7]; Table 8): 0.044 nM

CC(CCCC(C)(C)O)C1CCC2C(=CC=C3CC(O)C(C)C(O)C3)CCCC21C (mixture of isomers) [2-Methyl (α and β) 19-Nor-1,25-(OH)2D3, mixture of 2α and 2β-methyl-19-nor-1α,25-dihydroxyvitamin D3]
Intestinal Calcium Transport (S/M) [2, 16]: 5.0 ± 0.3 S/M | Intestinal Calcium Transport (S/M) [2, 13]: 5.3 ± 0.6 S/M | intestinal calcium transport activity, in words [2, 20]: no intestinal calcium transport activity | Serum Calcium [3, 21]: 5.4 ± 0.1 mg/100 ml | Serum Calcium [4, 16]: 6.1 ± 0.1 mg/100 ml | Serum Calcium [4, 13]: 6.7 ± 0.4 mg/100 ml | bone calcium mobilization (serum calcium) activity, in words [4, 20]: strong bone calcium mobilization at both dose levels | Intestinal Calcium Transport (S/M) [5, 21]: 3.6 ± 0.4 S/M | induction of differentiation of HL-60 cells to monocytes, in words [7]: activity similar to 1,25-(OH)2D3
